Experimental data published in patent US9023623B2, “Method for preparing of allicin injection and low-temperature continuous stirring ultrafiltration device thereof” (Xinjiang Ailexin Pharmaceutical Co., Ltd., priority 2010, dated 2015).
Converted amounts (≈) assume the structure as drawn.

Columns and labels:
[1] = system: Methicillin Resistant Staphylococcus Aureus (MRSA); test: Anti-pathogenic microorganism test; type: cell-based
[2] = background description; cited from earlier work
[3] = room temperature; background description; cited from earlier work
Candida albicans = test: Anti-pathogenic microorganism test; type: cell-based
Helicobacter pylori = test: Anti-pathogenic microorganism test; type: cell-based
Escherichia coli = test: Anti-pathogenic microorganism test; type: cell-based
Acinetobacter = test: Anti-pathogenic microorganism test; type: cell-based

MIC ([1]; Staphylococcus aureus): 10 to 30 mg/L (≈ 61.6 to 185 µM)
MIC (Helicobacter pylori): 10 to 30 mg/L (≈ 61.6 to 185 µM)
Compound: C=CCS[S+]([O-])CC=C (stereo not shown) [Allicin, thio-2-propene-1-sulfinic acid S-allyl ester]
bactericidal activity [1]: obviously bactericidal activity
decomposition when exposed to air [2]: decomposes and deteriorates within a few hours
solubility in water [3]: slightly soluble in water
bactericidal activity (Candida albicans): obviously bactericidal activity
sensitivity to allicin (Candida albicans): sensitive
bactericidal activity (Helicobacter pylori): obviously bactericidal activity
bactericidal activity (Escherichia coli): obviously bactericidal activity
bactericidal activity (Acinetobacter): obviously bactericidal activity
